The values that follow come from PMC2643345 (Molecular cancer therapeutics, 2008).

Each structure is given as a SMILES string. Bounds are passed on as bounds.

In the assay the target is T1, wild-type AR (Homo sapiens, UniProt P10275).
T1 sequence (P10275 1-920): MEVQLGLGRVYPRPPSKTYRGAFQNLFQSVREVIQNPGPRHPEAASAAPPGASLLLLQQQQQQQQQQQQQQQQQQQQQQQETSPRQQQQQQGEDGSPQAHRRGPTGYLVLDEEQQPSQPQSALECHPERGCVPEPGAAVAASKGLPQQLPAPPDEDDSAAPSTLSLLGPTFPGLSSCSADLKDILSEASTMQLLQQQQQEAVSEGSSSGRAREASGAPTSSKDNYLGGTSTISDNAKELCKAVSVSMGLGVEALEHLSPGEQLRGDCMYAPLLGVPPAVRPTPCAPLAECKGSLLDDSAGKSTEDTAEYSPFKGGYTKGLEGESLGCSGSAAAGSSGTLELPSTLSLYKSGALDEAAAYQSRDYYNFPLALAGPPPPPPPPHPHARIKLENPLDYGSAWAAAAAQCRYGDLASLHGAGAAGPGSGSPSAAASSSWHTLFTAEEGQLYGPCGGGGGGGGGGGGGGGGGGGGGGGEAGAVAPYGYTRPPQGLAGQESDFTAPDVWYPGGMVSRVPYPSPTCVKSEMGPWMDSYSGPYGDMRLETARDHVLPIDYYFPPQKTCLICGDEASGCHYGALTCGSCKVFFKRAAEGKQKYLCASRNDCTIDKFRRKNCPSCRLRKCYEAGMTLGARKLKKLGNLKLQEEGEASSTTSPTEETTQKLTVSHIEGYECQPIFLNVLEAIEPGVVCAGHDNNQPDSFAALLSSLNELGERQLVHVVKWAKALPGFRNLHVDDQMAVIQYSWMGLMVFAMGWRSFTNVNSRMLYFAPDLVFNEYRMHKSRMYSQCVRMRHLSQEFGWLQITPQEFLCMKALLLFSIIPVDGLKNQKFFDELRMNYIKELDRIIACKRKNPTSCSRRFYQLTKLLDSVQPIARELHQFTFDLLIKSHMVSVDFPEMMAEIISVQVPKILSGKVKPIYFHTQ
In words: Competitive inhibition of [3H]R1881 binding, wild-type AR.

On to `C[C@]12CC[C@H](O)CC1=CC[C@@H]1[C@@H]2CC[C@]2(C)C(c3cccnc3)=CC[C@@H]12` [Abiraterone], for which the “binding to the AR” value (competitive binding, up to 10 μM) is “did not bind”. The inhibition at 10 µM (read-out: wild-type (LAPC4/PC3-AR), inhibition of [3H]R1881 binding as symbol) was less than 20%.
